Test results as given in patent US10011649B2 (priority 2013, dated 2018).
Numbered stars: 1 amine (or outer) side, 2 acyl side, 3 side chain; on linkers, the order of the positions; unused ones are H or OH. Bridge positions count the residues as written; N and C are the ends. Square brackets hold non-standard residues; d marks the D form. Ends that are not written are not given here. I, II: the chains in the order shown. * marks the point of attachment. ξ: configuration not given here. Succinimide(1-C2H4CO,3-yl) = O=C1CC([*:1])C(=O)N1CCC(=O)[*:2]; X4 = O=C(O)CC[C@H](NC(=O)CCN1C(=O)CC([*:1])C1=O)C(=O)[*:2]; X2 = O=C(O)CCC(NC(=O)CCN1C(=O)CC([*:2])C1=O)C(=O)[*:1]; Biotin = O=C1N[C@H]2[C@H](CS[C@H]2CCCCC(=O)*)N1; X3 = O=C1CC([*:2])C(=O)N1CCC(=O)[*:1]; X1 = O=C1NC2CSC(CCCCC(=O)*)C2N1; scaffold‑1 = not defined here; Pra = C#CC[C@H](N)C(=O)O; ξE = NC(CCC(=O)O)C(=O)O; AEEA = NCCOCCOCC(=O)O; ξK = NCCCCC(N)C(=O)O; ξS = NC(CO)C(=O)O

Key:
[1] = tested on: UV inactivated Influenza A PR8/1934; assay type: binding
[2] = tested on: A/PR/8/34 H1N1 infected Madin-Darby Canine Kidney (MDCK) cells; assay: Cytopathic effect assay (XTT), virus induced cell death; assay type: cell-based; details: read-out: IC50, inhibition of virus induced cell death
Text: The illustrated examples support the finding that synbodies inhibit the cytopathic effect of influenza on MDCK cells. Influenza binding peptides were conjugated to a bivalent scaffold (Sc1, as best shown in FIG. 2A) and screened for viral inhibition in an in vitro inhibition assay with A/PR/8/34 H1N1 infected Madin-Darby Canine Kidney (MDCK) cells.

[3] = tested on: NP in A/Sydney/5/1997 H3N2 viral lysate; assay type: binding
[4] = tested on: hemagglutination of A/PR/8/34
[5] = biological target: T1, NP in A/PR/8/34 H1N1 viral lysate (Influenza A virus, UniProt P03466); assay type: binding
T1 construct: from tissue; host or cells: A/PR/8/34 H1N1 viral lysate

[6] = tested on: UV inactivated Influenza A PR/8/1934 H1N1; assay type: binding

T1 sequence (P03466 whole entry): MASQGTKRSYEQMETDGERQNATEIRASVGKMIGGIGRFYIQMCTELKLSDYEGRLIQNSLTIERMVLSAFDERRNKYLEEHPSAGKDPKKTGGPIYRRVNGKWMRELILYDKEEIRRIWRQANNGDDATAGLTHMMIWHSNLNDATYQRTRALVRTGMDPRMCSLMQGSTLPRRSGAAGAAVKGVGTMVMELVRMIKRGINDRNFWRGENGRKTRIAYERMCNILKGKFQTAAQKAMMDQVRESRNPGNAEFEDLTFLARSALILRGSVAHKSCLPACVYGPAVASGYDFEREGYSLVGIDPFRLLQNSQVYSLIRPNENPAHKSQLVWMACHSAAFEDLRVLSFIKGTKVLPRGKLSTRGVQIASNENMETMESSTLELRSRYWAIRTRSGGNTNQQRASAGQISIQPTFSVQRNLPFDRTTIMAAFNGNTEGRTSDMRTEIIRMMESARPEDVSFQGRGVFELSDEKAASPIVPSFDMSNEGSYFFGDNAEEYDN

Substance	Fold Change versus WT Synbody [1]	also measured
opt11-opt11: homo-bivalent synbody SEQ ID NO: 12-12 on scaffold-1 (chain 1 CSGTMYPYRPFQGNHIYRKK; chain 2 CSGTMYPYRPFQGNHIYRKK; linker (positions not given here) via scaffold‑1; reading uncertain; also: homo-bivalent on scaffold-1, attachment not given here)	47 fold	–
opt8-opt8: homo-bivalent synbody SEQ ID NO: 9-9 on scaffold-1 (chain 1 CSGTMYEYNPFQGNHIYNKK; chain 2 CSGTMYEYNPFQGNHIYNKK; linker (positions not given here) via scaffold‑1; reading uncertain; also: homo-bivalent on scaffold-1, attachment not given here)	1 fold	–
opt4-opt4: homo-bivalent synbody SEQ ID NO: 5-5 on scaffold-1 (chain 1 CSGRMYPYNPFQGNHIYNKK; chain 2 CSGRMYPYNPFQGNHIYNKK; linker (positions not given here) via scaffold‑1; reading uncertain; also: homo-bivalent on scaffold-1, attachment not given here)	10 fold	–
opt2-opt2: homo-bivalent synbody SEQ ID NO: 3-3 on scaffold-1 (chain 1 CSGRMYEYNPFQGNHIYNKK; chain 2 CSGRMYEYNPFQGNHIYNKK; linker (positions not given here) via scaffold‑1; reading uncertain; also: homo-bivalent on scaffold-1, attachment not given here)	3 fold	–
opt3-opt3: homo-bivalent synbody SEQ ID NO: 4-4 on scaffold-1 (chain 1 CSGDMYPYNPFQGNHIYNKK; chain 2 CSGDMYPYNPFQGNHIYNKK; linker (positions not given here) via scaffold‑1; reading uncertain; also: homo-bivalent on scaffold-1, attachment not given here)	n.b.	–
opt12-opt12: homo-bivalent synbody SEQ ID NO: 13-13 on scaffold-1 (chain 1 CSGRMYPYRPFQRKHIYRKK; chain 2 CSGRMYPYRPFQRKHIYRKK; linker (positions not given here) via scaffold‑1; reading uncertain; also: homo-bivalent on scaffold-1, attachment not given here)	n.b.	–
opt1-opt1: homo-bivalent synbody SEQ ID NO: 2-2 on scaffold-1 (chain 1 CSGDMYRYNPFQGNHIYNKK; chain 2 CSGDMYRYNPFQGNHIYNKK; linker (positions not given here) via scaffold‑1; reading uncertain; also: homo-bivalent on scaffold-1, attachment not given here)	6 fold	–
I: CSGDMYEYNPFQGNHIYNKK-NH2 / II: CSGDMYEYNPFQGNHIYNKK-NH2 / III: EKGSKSGK(Biotin)[Pra]-NH2 (linker I:1-III:2 via X4; linker II:1-III:N via Succinimide(1-C2H4CO,3-yl); C-terminus assumed) [P5-P5-Sc1]	1 fold	IC50 [2]: ~2500 nM
opt6-opt6: homo-bivalent synbody SEQ ID NO: 7-7 on scaffold-1 (chain 1 CSGDMYEYNPFQGNHIYRKK; chain 2 CSGDMYEYNPFQGNHIYRKK; linker (positions not given here) via scaffold‑1; reading uncertain; also: homo-bivalent on scaffold-1, attachment not given here)	4 fold	–
opt13-opt13: homo-bivalent synbody SEQ ID NO: 14-14 on scaffold-1 (chain 1 CCSGDRYEYNPFQGKHIYNK; chain 2 CCSGDRYEYNPFQGKHIYNK; linker (positions not given here) via scaffold‑1; reading uncertain; also: homo-bivalent on scaffold-1, attachment not given here)	n.b.	–
opt7-opt7: homo-bivalent synbody SEQ ID NO: 8-8 on scaffold-1 (chain 1 CSGRMYPYNPFQGNHIYRKK; chain 2 CSGRMYPYNPFQGNHIYRKK; linker (positions not given here) via scaffold‑1; reading uncertain; also: homo-bivalent on scaffold-1, attachment not given here)	45 fold	–
I: [ξE][ξK]G[ξS]G[ξS]G[AEEA][ξK](X1)IDKMPFETHRLGPGRFDGSG-NH2 / II: CSGDMYEYNPFQGNHIYNKK-NH2 / III: CSGDMYEYNPFQGNHIYNKK-NH2 (linker I:2-II:1 via X2; linker I:N-III:1 via X3) [P5-P5-Sc2]	–	pull-down of NP from lysate [3]: pulled-down NP from both lysates; inhibition of hemagglutination [4]: did not inhibit hemagglutination; pull-down of NP from lysate [5]: pulled-down NP from both lysates; IC50 (A/Sydney/5/1997 H3N2): 2500 nM; IC50 (A/CA/7/2009 H1N1): 2500 nM
opt14-opt14: homo-bivalent synbody SEQ ID NO: 15-15 on scaffold-1 (chain 1 CSGRMYEYNPFQGKHIYRKK; chain 2 CSGRMYEYNPFQGKHIYRKK; linker (positions not given here) via scaffold‑1; reading uncertain; also: homo-bivalent on scaffold-1, attachment not given here)	107 fold	–
opt5-opt5: homo-bivalent synbody SEQ ID NO: 6-6 on scaffold-1 (chain 1 CSGRMYRYNPFQGNHIYNKK; chain 2 CSGRMYRYNPFQGNHIYNKK; linker (positions not given here) via scaffold‑1; reading uncertain; also: homo-bivalent on scaffold-1, attachment not given here)	n.b.	–
opt9-opt9: homo-bivalent synbody SEQ ID NO: 10-10 on scaffold-1 (chain 1 CSGRMYPYRPFQGNHIYRKK; chain 2 CSGRMYPYRPFQGNHIYRKK; linker (positions not given here) via scaffold‑1; reading uncertain; also: homo-bivalent on scaffold-1, attachment not given here)	1 fold	–
CSGrMYpYrPFQGNHIYrKK (CSG[dR]MYPY[dR]PFQGNHIY[dR]KK; not fully specified (residue 7); printed as CSGrMYpYrPFQGNHIYrKK) [opt10]	–	fold improvement of optimized peptide over identified lead peptide [6]: approximately 1000 fold
